# Read-outs that look alike come from different tables or passages of the source. Marks after values point to notes of the source that are not given here.
# Legend:
# [1] = biological target: T1, CDK9/CycT1 (Homo sapiens, UniProt P50750); test: CDK9/CycT1 high ATP kinase assay (Method 1b, TR-FRET, 2 mM ATP); assay type: biochemical; conditions: for IC50: Method 1b, 2 mM ATP; for Selectivity high ATP CDK9 over high ATP CDK2: IC50 (high ATP CDK2)/IC50 (high ATP CDK9): Methods 1b and 2b, minimal values
# T1 construct: Recombinant full-length His-tagged human CDK9 and CycT1; His; purchased Invitrogen PV4131; host or cells: insect cells
# Procedure: 1b. CDK9/CycT1 High ATP Kinase Assay
# CDK9/CycT1-inhibitory activity of compounds of the present invention at a high ATP concentration after preincubation of enzyme and test compounds was quantified employing the CDK9/CycT1 TR-FRET assay as described in the following paragraphs.
# Recombinant full-length His-tagged human CDK9 and CycT1, expressed in insect cells and purified by Ni-NTA affinity chromatography, were purchase from Invitrogen (Cat. No PV4131). As substrate for the kinase reaction biotinylated peptide biotin-Ttds-YISPLKSPYKISEG (C-terminus in amid form) was used which can be purchased e.g. from the company JERINI peptide technologies (Berlin, Germany). For the assay 50 nl of a 100 fold concentrated solution of the test compound in DMSO was pipetted into a black low volume 384 well microtiter plate (Greiner Bio-One, Frickenhausen, Germany), 2 μl of a solution of CDK9/CycT1 in aqueous assay buffer [50 mM Tris/HCl pH 8.0, 10 mM MgCl2, 1.0 mM dithiothreitol, 0.1 mM sodium ortho-vanadate, 0.010% (v/v) Nonidet-P40 (Sigma)] were added and the mixture was incubated for 15 min at 22° C. to allow pre-binding of the test compounds to the enzyme before the start of the kinase reaction. Then the kinase reaction was started by the addition of 3 μl of a solution of adenosine-tri-phosphate (ATP, 3.3 mM=> final conec. in the 5 μl assay volume is 2 mM) and substrate (1.67 μM=> final conc. in the 5 μl assay volume is 1 μM) in assay buffer and the resulting mixture was incubated for a reaction time of 25 min at 22° C. The concentration of CDK9/CycT1 was adjusted depending of the activity of the enzyme lot and was chosen appropriate to have the assay in the linear range, typical concentrations were in the range of 0.5 μg/mL. The reaction was stopped by the addition of 5 μl of a solution of TR-FRET detection reagents (0.2 μM streptavidine-XL665 [Cisbio Bioassays, Codolet, France] and 1 nM anti-RB(pSer807/pSer811)-antibody from BD Pharmingen [#558389] and 1.2 nM LANCE EU-W1024 labeled anti-mouse IgG antibody [Perkin-Elmer, product no. AD0077]) in an aqueous EDTA-solution (100 mM EDTA, 0.2% (w/v) bovine serum albumin in 100 mM HEPES pH 7.5).
# The resulting mixture was incubated 1 h at 22° C. to allow the formation of complex between the phosphorylated biotinylated peptide and the detection reagents. Subsequently the amount of phosphorylated substrate was evaluated by measurement of the resonance energy transfer from the Eu-chelate to the streptavidine-XL. Therefore, the fluorescence emissions at 620 nm and 665 nm after excitation at 350 nm was measured in a HTRF reader, e.g. a Rubystar (BMG Labtechnologies, Offenburg, Germany) or a Viewlux (Perkin-Elmer). The ratio of the emissions at 665 nm and at […] was taken as the measure for the amount of phosphorylated substrate. The data were normalised (enzyme reaction without inhibitor=0% inhibition, all other assay components but no enzyme=100% inhibition).
# [2] = biological target: T2, human PTEFb (CDK9/Cyclin T1) (Homo sapiens, UniProt P50750); test: Surface Plasmon Resonance PTEFb; assay type: binding; conditions: for Target resident time: 1/koff; for koff: read-out: Dissociation rate constant koff
# T2 construct: purchased ProQinase, Freiburg, Germany
# Description: 8. Surface Plasmon Resonance PTEFb
# The ability of the compounds according to the invention to bind human PTEFb may be determined using surface plasmon resonance (SPR). KD values and koff values may be measured using a Biacoret T200 instrument (GE Healthcare, Uppsala, Sweden).
# For SPR measurements, recombinant human PTEFb (CDK9/Cyclin T1 recombinant human active protein kinase purchased from ProQinase, Freiburg, Germany) is immobilized using standard amine coupling (Johnsson B et al, Anal Biochem. 1991 Nov. 1; 198(2):268-77). Briefly, carboxymethylated dextran biosensor chips (CM7, GE Healthcare) are activated with N-ethyl-N′-(3-dimethylaminopropyl)-carbodiimide hydrochloride (EDC) and N-hydroxysuccinimide (NHS) according to the supplier's instructions. Human PTEFb is diluted in 1×HBS-EP+(GE Healthcare) into 30 μg/ml and injected on the activated chip surface. Subsequently, a 1:1 solution of 1 M ethanolamine-HCl (GE Healthcare) and 1×HBS-EP is injected to block unreacted groups, resulting in approximately 4000 response units (RU) of immobilized protein. A reference surface is generated by treatment with NHS-EDC and ethanolamine-HCl. Compounds are dissolved in 100% dimethylsulfoxide (DMSO, Sigma-Aldrich, Germany) to a concentration of 10 mM and subsequently diluted in running buffer (1×HBS-EP+pH 7.4 [generated from HBS-EP+Buffer 10×(GE Healthcare): 0.1 M HEPES, 1.5 M NaCl, 30 mM EDTA and 0.5% v/v Surfactant P20], 1% v/v DMSO). For kinetic measurements, four-fold serial dilutions of compound (0.39 nM to 100 nM) are injected over immobilized protein. […] Compound concentrations are injected for 60 s followed by a dissociation time of 1800 s. The resulting sensorgrams are double-referenced against the reference surface as well as against blank injections.
# The double-referenced sensorgrams are fit to a simple reversible Langmuir 1:1 reaction mechanism as implemented in the Biacore® T200 evaluation software 2.0 (GE Healthcare). In cases were full compound dissociation has not occurred at the end of the dissociation phase, the Rmax parameter (response at saturation) is fit as local variable. In all other cases, Rmax is fit as global variable.
# [3] = system: MOLM-13; test: Proliferation assay, Cell Titer-Glo; assay type: cell-based; conditions: Homo sapiens; MOLM-13, 72-hour exposure; read-out: Inhibition of MOLM-13 cell proliferation IC50
# Procedure: (§1) MOLM-13 human acute myeloid leukemia cells (DSMZ ACC 554) and A2780, human ovarian carcinoma cells (ECACC #93112519) were seeded at a density of 5,000 cells/well (MOLM-13), or 3,000 cells/well (A2780) in a 96-well multititer plate in 150 μL of growth medium supplemented 10% fetal calf serum. After 24 hours, cell viability of one plate (zero-point plate) was determined with the Cell Titer-Glo Luminescent Cell Viability Assay (Promega), whiletest compound was added to the wells of the other plates employing HP Dispenser (final concentrations in the range of 0.0001-10 μM and DMSO controls). Cell viability was assessed after 72-hour exposure with the Cell Titer-Glo Luminescent Cell Viability Assay (Promega). IC50 values (inhibitory concentration at 50% of maximal effect) were determined by means of a 4 parameter fit on measurement data which were normalized to vehicle (DMSO) treated cells (=100%) and measurement readings taken immediately before compound exposure (=0%).
# [4] = system: A2780; test: Proliferation assay, Cell Titer-Glo; assay type: cell-based; conditions: Homo sapiens; A2780, 72-hour exposure; read-out: Inhibition of A2780 cell proliferation IC50
# Procedure: as §1
# T1 sequence (P50750 whole entry): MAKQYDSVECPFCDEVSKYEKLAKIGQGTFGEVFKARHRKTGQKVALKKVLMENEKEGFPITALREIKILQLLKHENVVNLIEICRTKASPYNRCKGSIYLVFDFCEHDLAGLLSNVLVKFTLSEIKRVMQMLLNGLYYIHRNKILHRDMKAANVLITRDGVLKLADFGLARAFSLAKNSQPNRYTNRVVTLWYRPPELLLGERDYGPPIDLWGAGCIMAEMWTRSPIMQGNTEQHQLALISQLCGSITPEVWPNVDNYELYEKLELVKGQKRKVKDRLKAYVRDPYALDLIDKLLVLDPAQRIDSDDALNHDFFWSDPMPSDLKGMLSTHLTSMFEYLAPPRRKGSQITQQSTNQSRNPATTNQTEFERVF
# T1 sequence (O60563 whole entry partner): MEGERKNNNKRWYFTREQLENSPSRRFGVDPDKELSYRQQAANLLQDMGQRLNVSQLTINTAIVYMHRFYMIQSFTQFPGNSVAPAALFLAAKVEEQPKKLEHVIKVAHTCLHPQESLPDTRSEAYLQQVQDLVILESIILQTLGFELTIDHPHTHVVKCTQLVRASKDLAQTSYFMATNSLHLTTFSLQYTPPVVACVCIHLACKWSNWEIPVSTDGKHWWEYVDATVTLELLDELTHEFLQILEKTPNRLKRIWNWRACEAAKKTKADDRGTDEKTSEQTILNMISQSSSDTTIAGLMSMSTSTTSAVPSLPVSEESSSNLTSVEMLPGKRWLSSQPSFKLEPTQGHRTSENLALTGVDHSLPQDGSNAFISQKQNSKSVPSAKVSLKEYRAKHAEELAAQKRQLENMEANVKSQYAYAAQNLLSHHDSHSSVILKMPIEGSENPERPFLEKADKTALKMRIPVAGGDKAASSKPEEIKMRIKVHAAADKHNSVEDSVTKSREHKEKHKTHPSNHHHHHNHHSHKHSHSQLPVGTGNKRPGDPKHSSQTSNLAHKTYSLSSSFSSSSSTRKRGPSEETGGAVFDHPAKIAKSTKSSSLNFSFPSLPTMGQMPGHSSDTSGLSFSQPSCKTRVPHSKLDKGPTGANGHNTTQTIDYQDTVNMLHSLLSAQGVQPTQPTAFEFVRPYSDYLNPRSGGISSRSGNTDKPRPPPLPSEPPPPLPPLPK
# T2 sequence (P50750 whole entry): as the sequence (P50750 whole entry) above
# T2 sequence (O60563 whole entry partner): as the sequence (O60563 whole entry partner) above
smiles,measurement,setting,value
"CS(=N)(Cc1cc2cc(c1)OCCCCOc1cc(F)ccc1-c1nc(ncc1F)N2)=NC1CC1 (racemic) [Example 9, (rac)-9-[(N-cyclopropyl-S-methylsulfonodiimidoyl)methyl]-16,20-difluoro-2,3,4,5-tetrahydro-12H-13,17-(azeno)-11,7-(metheno)-1,6,12,14-benzodioxadiazacyclononadecine]",IC50,[1],2.3 nM
same,Selectivity high ATP CDK9 over high ATP CDK2: IC50 (high ATP CDK2)/IC50 (high ATP CDK9),[1],433
same,Target resident time,"[2]; 25° C., Parameters F",79* min
same,koff,"[2]; 25° C., Parameters F",0.000211 s⁻¹
same,IC50,[3],22.2 nM
same,IC50,[4],31.3 nM
"CS(=N)(Cc1cc2nc(c1)OCCCOc1cc(F)ccc1-c1cc(ncc1F)N2)=NC#N (racemic) [Example 3, (rac)-[{[15,19-difluoro-3,4-dihydro-2H,11H-10,6-(azeno)-12,16-(metheno)-1,5,11,13-benzodioxadiazacyclooctadecin-8-yl]methyl}(imino)methyl-λ^6-sulfanylidene]cyanamide]",IC50,[1],1.7 nM
same,Selectivity high ATP CDK9 over high ATP CDK2: IC50 (high ATP CDK2)/IC50 (high ATP CDK9),[1],36.7
same,Target resident time,"[2]; 25° C., Parameters B",> 666 min
same,koff,"[2]; 25° C., Parameters B",< 2.5e-05 s⁻¹
same,Target resident time,"[2]; 25° C., Parameters C",> 333 min
same,koff,"[2]; 25° C., Parameters C",< 5e-05 s⁻¹
same,IC50,[3],2 nM
same,IC50,[4],2.6 nM
"CS(=N)(=N)Cc1cc2cc(c1)OCCCCOc1c(F)cccc1-c1nc(ncc1F)N2 [Example 7, 16,21-difluoro-9-[(S-methylsulfonodiimidoyl)methyl]-2,3,4,5-tetrahydro-12H-13,17-(azeno)-11,7-(metheno)-1,6,12,14-benzodioxadiazacyclononadecine]",Selectivity high ATP CDK9 over high ATP CDK2: IC50 (high ATP CDK2)/IC50 (high ATP CDK9),[1],2132
same,Target resident time,"[2]; 25° C., Parameters G",11* min
same,koff,"[2]; 25° C., Parameters G",0.00154 s⁻¹
same,IC50,[3],126 nM
same,IC50,[4],125 nM
"CS(=N)(=N)Cc1cc2nc(c1C#N)OCCCOc1cc(F)ccc1-c1cc(ncc1F)N2 [Example 8, 15,19-difluoro-8-[(S-methylsulfonodiimidoyl)methyl]-3,4-dihydro-2H,11H-10,6-(azeno)-12,16-(metheno)-1,5,11,13-benzodioxadiazacyclooctadecine-7-carbonitrile]",IC50,[1],1.5 nM
same,Selectivity high ATP CDK9 over high ATP CDK2: IC50 (high ATP CDK2)/IC50 (high ATP CDK9),[1],252
same,Target resident time,"[2]; 25° C., Parameters G",51* min
same,koff,"[2]; 25° C., Parameters G",0.000326 s⁻¹
same,IC50,[3],4.2 nM
same,IC50,[4],18.1 nM
"CS(=N)(=N)Cc1cc2nc(c1)OCCCOc1cc(F)ccc1-c1cc(ncc1F)N2 [Example 1, 15,19-difluoro-8-[(S-methylsulfonodiimidoyl)methyl]-3,4-dihydro-2H,11H-10,6-(azeno)-12,16-(metheno)-1,5,11,13-benzodioxadiazacyclooctadecine]",IC50,[1],2 nM
same,Selectivity high ATP CDK9 over high ATP CDK2: IC50 (high ATP CDK2)/IC50 (high ATP CDK9),[1],70
same,Target resident time,"[2]; 25° C., Parameters A",> 333 min
same,koff,"[2]; 25° C., Parameters A",< 5e-05 s⁻¹
same,Target resident time,"[2]; 25° C., Parameters B",> 666 min
same,koff,"[2]; 25° C., Parameters B",< 2.5e-05 s⁻¹
same,IC50,[3],2.8 nM
same,IC50,[4],4 nM
"CN=S(C)(=N)Cc1cc2cc(c1)OCCCCOc1cc(F)ccc1-c1nc(ncc1F)N2 (racemic) [Example 10, (rac)-9-[(N,S-dimethylsulfonodiimidoyl)methyl]-16,20-difluoro-2,3,4,5-tetrahydro-12H-13,17-(azeno)-11,7-(metheno)-1,6,12,14-benzodioxadiazacyclononadecine]",IC50,[1],3.4 nM
same,Selectivity high ATP CDK9 over high ATP CDK2: IC50 (high ATP CDK2)/IC50 (high ATP CDK9),[1],485
same,Target resident time,"[2]; 37° C., Parameters E",20* min
same,koff,"[2]; 37° C., Parameters E",0.000833 s⁻¹
same,IC50,[4],29 nM
"CN=S(C)(=N)Cc1cc2nc(c1)OCCCOc1cc(F)ccc1-c1cc(ncc1F)N2 (racemic) [Example 4, (rac)-8-[(N,S-dimethylsulfonodiimidoyl)methyl]-15,19-difluoro-3,4-dihydro-2H,11H-10,6-(azeno)-12,16-(metheno)-1,5,11,13-benzodioxadiazacyclooctadecine]",IC50,[1],3.7 nM
same,Selectivity high ATP CDK9 over high ATP CDK2: IC50 (high ATP CDK2)/IC50 (high ATP CDK9),[1],168
same,koff,"[2]; 25° C., Parameters B",4.96e-05 s⁻¹
same,Target resident time,"[2]; 25° C., Parameters D",70 min
same,koff,"[2]; 25° C., Parameters D",0.000237 s⁻¹
same,IC50,[3],4.7 nM
same,IC50,[4],11.7 nM
"CS(=N)(=N)Cc1cc2cc(c1)OCCCCOc1c(ccc(F)c1F)-c1nc(ncc1F)N2 [Example 6, 16,20,21-trifluoro-9-[(S-methylsulfonodiimidoyl)methyl]-2,3,4,5-tetrahydro-12H-13,17-(azeno)-11,7-(metheno)-1,6,12,14-benzodioxadiazacyclononadecine]",IC50,[1],5.9 nM
same,Selectivity high ATP CDK9 over high ATP CDK2: IC50 (high ATP CDK2)/IC50 (high ATP CDK9),[1],2118
same,Target resident time,"[2]; 25° C., Parameters B",9* min
same,koff,"[2]; 25° C., Parameters B",0.00188 s⁻¹
same,IC50,[3],113 nM
same,IC50,[4],123 nM
"CS(=N)(Cc1cc2nc(c1)OCCCOc1cc(F)ccc1-c1cc(ncc1F)N2)=NCCCO (racemic) [Example 2, (rac)-3-(2-{[15,19-difluoro-3,4-dihydro-2H,11H-10,6-(azeno)-12,16-(metheno)-1,5,11,13-benzodioxadiazacyclooctadecin-8-yl]methyl}-2-methyl-2λ^6-diazathia-1,2-dien-1-yl)propan-1-ol]",IC50,[1],2 nM
same,Selectivity high ATP CDK9 over high ATP CDK2: IC50 (high ATP CDK2)/IC50 (high ATP CDK9),[1],123
same,Target resident time,"[2]; 25° C., Parameters B",> 666 min
same,koff,"[2]; 25° C., Parameters B",< 2.5e-05 s⁻¹
same,Target resident time,"[2]; 25° C., Parameters C",> 333 min
same,koff,"[2]; 25° C., Parameters C",< 5e-05 s⁻¹
same,IC50,[3],5.3 nM
same,IC50,[4],5.4 nM
